Laboratory results as given in PMC9594042, “Probing the KRas Switch II Groove by Fluorine NMR Spectroscopy” (ACS Chemical Biology, 2022).
Where two headings read alike, the source gives them in different places.

Experiments:
KRas^G12D GDP [1] = biological target: T1, KRas^G12D GDP (Homo sapiens, UniProt P01116, G12D); type: binding; details: tested at 60 μM; probe 9 100 µM, protein 2 µM GDP-bound
T1 construct: HRas 1-166 (His-TEV-N; pProEx; ampicillin resistance) and KRas 1-169; His tag with TEV site (N, cleaved yes); made in house; host or cells: E. coli BL21(DE3)

[2] = biological target: T2, KRas^G12D GDP and KRas^G12D GNP (Homo sapiens, UniProt P01116, G12D); test: Dual-probe (9 and 12 in mixture) 19F CPMG NMR monitoring of both nucleotide states; type: binding; details: 6 μM each state
T2 construct: HRas 1-166 (His-TEV-N; pProEx; ampicillin resistance) and KRas 1-169; His tag with TEV site (N, cleaved yes); made in house; host or cells: E. coli BL21(DE3)
Excerpt: (1 picture or pasted object on this page, not shown here)

KRas^G12D = biological target: KRas^G12D; parameters: method as in PMID 34889605; details: cited from earlier work
Aqueous solubility = type: physicochemical
[3] = biological target: T3, KRas^G12D (both nucleotide states) (Homo sapiens, UniProt P01116, G12D); test: 19F CPMG NMR detection of KRas^G12D by probes (normalized integrals I/I0); type: binding; details: probe 100 μM, KRas^G12D 6 μM; for sensitivity of detection compared to 3 and 4: 160 ms CPMG; for nucleotide state detected: GDP vs GNP
T3 construct: HRas 1-166 (His-TEV-N; pProEx; ampicillin resistance) and KRas 1-169; His tag with TEV site (N, cleaved yes); made in house; host or cells: E. coli BL21(DE3)
Excerpt: (§1) We then sought to determine whether these SIIG-binders could serve as probe ligands to detect KRas proteins by ^19F NMR spectroscopy. One-dimensional CPMG experiments [90-(τ-180-τ)n], in which a spin–echo with delay τ is looped n times, attenuate signal intensity as a function of the transverse relaxation rate (R2) and total spin echo time (2·τ·n). Prior studies have shown that reversible binding of proteins to fluorine-containing small molecules induces an increase in the observed ^19F R2 at long values of τ, which maximize the exchange contribution to R2.[24],[25] […] Further modifications to the probe structure were required to improve its binding affinity and the sensitivity of the ^19F CPMG NMR assay.
To improve the sensitivity of this method for oncogenic KRas proteins and to explore the relationship between structure and nucleotide-state specificity, we synthesized a series of derivatives of 3 and 4 with varied structure at the aryl ring expected to be buried deepest within the pocket, and these derivatives were evaluated by CPMG NMR spectroscopy against both nucleotide states of KRas^G12D (6 μM; Figure 2A,B). […] Probe 9 relaxed more slowly in the absence of protein (R2,free = 2.4 Hz) than did compounds containing the C-5 hydroxy group (R2,free = 6.3 Hz for 4, 4.4 Hz for 12, and 5.0 Hz for 17), increasing the sensitivity and dynamic range of integral measurements with this probe (Figure S2). Furthermore, probe 9 was confirmed to be a tighter binder to the SIIG of U–^15N KRas^G12D GDP by HSQC NMR compared to 4 (Figure S3).
Figure 2 SAR of SIIG binders enables more sensitive detection of KRas^G12D. (a) Chemical structures of SIIG binders. (b) Normalized integrals (I/I0) from ^19F CPMG NMR spectra (160 ms) of probes (100 μM) with KRas^G12D (6 μM); values are means ± errors propagated from SD (n = 3). (c) Effect of varying KRas^G12D concentration on I/I0; values are means ± errors propagated from SD (n = 3). (d) Effect of varying probe concentration on I/I0; [P]0 = 6 μM for probes 9 and 12, 3 μM for probe 17; individual points shown (n = 3); data fit to eq 1 (SI).
(§2) Preparation of Ras proteins.
(§3) The plasmids for bacterial expression of HRas 1-166 (His-TEV-N; pProEx; ampicillin resistance) and KRas 1-169 (His-TEV-N; pJ411; kanamycin resistance) have been previously published.1 Mutants were obtained by site-directed mutagenesis (Q5, NEB; or Genscript Biotech). BL21(DE3) competent cells were transformed with 1-2 ng of plasmid.
(§4) Cultures for the preparation of natural abundance isotope proteins were grown at 37 °C (A600 0.4 -0.6) in Terrific Broth (Sigma Aldrich), induced (1 mM IPTG), and allowed to express protein overnight at 18 °C. Cultures for the preparation of U -15N proteins were grown and induced in M9 minimal media supplemented with 1 g/L 15NH4Cl (CIL).
(§5) Cells were collected by centrifugation, lysed by sonication (Tris buffer pH 8.0, supplemented with 1 mM PMSF or 1 tablet per 50 ml EDTA-free cOmplete, Roche), and cleared by centrifugation. His -tagged Ras proteins were isolated with Co TALON resin (Takara Bio), the nucl eotide was exchanged to GDP by dialysis (0.5 mM EDTA), the His tag was cleaved with TEV protease, and the protein was purified by anion exchange (Tris buffer pH 8.0, 50 -500 NaCl gradient, HiTrap Q HP, Cytiva) and gel filtration (HEPES storage buffer pH 7.5 , Superdex 75, GE or Cytiva).
(§6) Nucleotide exchange from GDP to GPPNHP (Jena Biosciences) was performed with samples of protein reserved prior to the final gel filtration purification and according to a published procedure comprising EDTA -mediated exchange, desalting, and cleavage of residual GDP with an alkaline phosphatase (CIP or Quick CIP, NEB) 1-4, and then purified by gel filtration. Proteins were concentrated (10k Amicon Ultra, Millipore) to 0.5-1 mM, concentrations were […]
flash frozen in liquid N2 and stored at -80 °C.
Storage buffer: 20 mM HEPES, 150 mM NaCl, 1 mM MgCl2. Titrated to pH 7.5 with NaOH. Storage buffer for U- […]

[4] = biological target: T4, U-15N KRas^G12D GDP 1-169 (Homo sapiens, UniProt P01116, G12D); test: 1H-15N HSQC NMR binding; details: six peaks fit to single site binding curve; pH 7.4, 298 K, 10% dmso-d6, 50 µM protein; error is SD of six peaks
T4 construct: HRas 1-166 (His-TEV-N; pProEx; ampicillin resistance) and KRas 1-169; His tag with TEV site (N, cleaved yes); made in house; host or cells: E. coli BL21(DE3)

KRas^G12D GDP [5] = biological target: T1, KRas^G12D GDP; test: 19F CPMG NMR probe binding (I/I0 vs probe concentration), GDP state
Excerpt: as §1
(§7) The probe and protein concentrations were varied to determine the dependence on each binding partner. The normalized integrals (I/I0) of the probes decreased exponentially with increasing protein concentrations (Figure 2C, Figure S2C,D). The normalized integrals increased with increasing probe concentrations, and KD values for the probe–protein binding were extracted by fitting the data to eq 1 (Figure 2D, SI).
(§8) All non-linear regressions were performed in Graphpad Prism v9 with data points handled as individual values.
(§9) Constrained constants are noted.
(§10) Integrals (I) from single-point CPMG experiments were calculated by dividing the probe’s absolute integral by the standard’s absolute integral (3-trifluoromethylphenol, 3TFMP) from the same sample. The resulting integral values (I) were averaged (n=3) and then normalized by dividing by the measurement obtained in the absence of protein (I0, n=1 or 3). Errors in I/I 0 and -ln(I/I0) were propagated from the standard devi ations (SD) in I and I 0. In all cases, I and I0 were measured from the same premixed aliquot of probe and 3 -trifluoromethylphenol.
(§11) The KD values of probes were calculated by fitting normalized integrals to equation 1 , where I and I0 are the integrals in the presence and absence of protein, respectively, A is a constant in Hz, t is the total spin-echo time (2·τ·n), and [P]0 and [L]0 are the total concentrations of protein and probe, respectively (constraining [P]0 and t). See the supplementary information for derivation.
(§12) I⁄I = e−A∙t∙[P]0⁄(KD+[L]0) (eq 1) […]
as §2, §3, §4, §5, §6
flash frozen in liquid N2 and stored at -80 °C. […]

[6] = system: panel of KRas proteins (G12 and Q61 mutations), GDP and GNP states; test: 19F CPMG NMR detection of a panel of KRas and HRas proteins; type: binding; details: probe 100 μM, protein 6 μM, 160 ms CPMG
Description: The closely related protein HRas 1–166 contains only one residue difference within the SIIG binding site (Q95 in HRas vs H95 in KRas). HRas was only weakly detected by this method; however, the results with HRas^Q95H closely matched those obtained with KRas^WT.
Figure 3 ^19F CPMG NMR spectroscopy detects a variety of oncogenic KRas proteins. Normalized integrals (I/I0) from ^19F CPMG NMR spectra (160 ms) of 100 μM 9 (a), 12 (b), or 17 (c) in the presence of 6 μM KRas or HRas proteins; values are means ± errors propagated from the SDs of I and I0 (n = 3).
as §2, §3, §4
Cells were collected by centrifugation, lysed by sonication (Tris buffer pH 8.0, supplemented with 1 mM PMSF or 1 tablet per 50 ml EDTA-free cOmplete, Roche), and cleared by centrifugation. […]
1D 1H (ZGESGP) and 2D 1H-15N fast HSQC (FHSQCCF3GPPH, NS = 8, TDF1 = 256, GARP decoupling) spectra were recorded at 298 K on an 800 MHz Bruker Avance NEO spectrometer equipped with an actively shielded Z-gradient 5 mm TCI cryoprobe (H&F/C/N) using programs from the pulse program library (TopSpin 4.0.8). Spectra were processed and analyzed with Bruker Topspin 4.0 and CCPNMR Analysis v3.5 1H chemical shifts were referenced to 1 mM DSS at 0 ppm; 15N chemical shifts were referenced indirectly with Ξ = 0.101329118. […]

KRas^G12D GNP = biological target: T5, KRas^G12D GNP (Homo sapiens, UniProt P01116, G12D); test: 19F CPMG NMR probe binding (I/I0 vs probe concentration), GNP state
T5 construct: HRas 1-166 (His-TEV-N; pProEx; ampicillin resistance) and KRas 1-169; His tag with TEV site (N, cleaved yes); made in house; host or cells: E. coli BL21(DE3)
Excerpt: as §1, §7, §8, §9, §10, §11, §12, §2
The plasmids for bacterial expression of HRas 1-166 (His-TEV-N; pProEx; ampicillin resistance) and KRas 1-169 (His-TEV-N; pJ411; kanamycin resistance) have been previously published.1 Mutants were obtained by site-directed mutagenesis (Q5, NEB; or Genscript Biotech). BL21(DE3) competent cells were transformed with 1-2 ng of plasmid. […]

[7] = 19F CPMG 160 ms, varying probe concentration, [P]0 = 6 μM for 9 and 12, 3 μM for 17, fit to eq 1, read-out: KD
[8] = non-linear regression eq 1, t=0.16 s, read-out: KD (extracted value, Table S1)
[9] = 19F CPMG 160 ms, varying probe concentration, [P]0 = 6 μM for 12, 3 μM for 17, fit to eq 1, read-out: KD

| Structure (SMILES) | sensitivity of detection compared to 3 and 4 [3] | nucleotide state detected [3] | Kd (KRas^G12D GDP [5]; [7]) | Kd (KRas^G12D GDP [5]; [8]) | detection of oncogenic KRas proteins [6] | other results |
| --- | --- | --- | --- | --- | --- | --- |
| C=CC(=O)N1CC2(CC(n3nc(-c4ccc5c(cnn5C)c4)c(-c4c(Cl)c(C)cc5[nH]ncc45)c3C)C2)C1 [JDQ443] |  |  |  |  |  | occupancy of the SIIP of KRas^G12D (KRas^G12D GDP [1]): did not occupy |
| C#Cc1c(F)ccc2cc(O)cc(-c3ncc4c(N5CC6CCC(C5)N6)nc(OC[C@@]56CCCN5C[C@H](F)C6)nc4c3F)c12 [MRTX1133] |  |  |  |  |  | nucleotide state occupied ([2]; 9 and 12 50 μM each, MRTX849 60 μM, MRTX1133 in excess 15 μM, KD2 30 μM): occupied both nucleotide states; nucleotide state occupied ([2]; substoichiometric quantities (2, 4, and 6 μM)): selectively occupied the GDP-state; Ki (KRas^G12D; GDP state): < 1 pM; binding affinity (KRas^G12D): subpicomolar |
| C=CC(=O)Nc1cc(Cl)cc(NC(=O)c2cnn(-c3ccc(OC)cc3)c2C(F)(F)F)c1 [compound 2] |  |  |  |  |  | aqueous solubility (Aqueous solubility): very low |
| NCCNC(=O)COCCOc1ccc(-n2ncc(C(=O)Nc3ccc(O)c(Cl)c3)c2C(F)(F)F)cc1 [compound 9] | increased sensitivity | specifically detected the GDP state | 200 µM | 204 µM | most sensitively detected the GDP state of KRas^G12D | Kd [4]: 580 ± 280 µM |
| Cc1c(Cl)cc(O)cc1NC(=O)c1cnn(-c2ccc(OCCOCC(=O)NCCN)cc2)c1C(F)(F)F [compound 12] | increased sensitivity | detected both nucleotide states with similar sensitivity | 310 µM | 307 µM | detected both nucleotide states of all oncogene products tested | Kd (KRas^G12D GNP; [9]): 780 µM; Kd (KRas^G12D GNP; [8]): 778 µM |
| NCCNC(=O)COCCOc1ccc(-n2ncc(C(=O)Nc3cc(O)cc(Cl)c3C3CC3)c2C(F)(F)F)cc1 [compound 14] | increased sensitivity |  |  |  |  |  |
| Cc1c(NC(=O)c2cnn(-c3ccc(OCCOCC(=O)NCCN)cc3)c2C(F)(F)F)ccc(O)c1Cl [compound 15] | increased sensitivity |  |  |  |  |  |
| NCCNC(=O)COCCOc1ccc(-n2ncc(C(=O)Nc3cc(O)cc4ccccc34)c2C(F)(F)F)cc1 [compound 17] | increased sensitivity | detected both nucleotide states with similar sensitivity | 350 µM | 352 µM | detected both nucleotide states of all oncogene products tested | Kd (KRas^G12D GNP; [9]): 390 µM; Kd (KRas^G12D GNP; [8]): 393 µM |
